The subject of one experiment is serum glucagon. Nature of the experiment: Glucagon Inhibition In Dogs (I.V. infusion, L-alanine stimulation, serum glucagon by radioimmunoassay). In kind it is in vivo, dog. How it is done:
(§1) B. Insulin and Glucagon Inhibition In Dogs:
(§2) A normal dog is fasted overnight. An intravenous (I.V.) infusion of the test compound (dissolved in saline) is begun. Thirty minutes thereafter an additional infusion of L-alanine (dissolved in saline) is begun and is continued for a total of 15 minutes so that a total dose of about 1 mmole of L-alanine per kg. body weight is given. Infusion of the test compound is continued for an additional 15 minute period.
(§3) Blood samples are taken periodically before (at -20, -10 and -1 minutes) and after (5, 10, 15, 30, 35, 40, 45, 50, 60, 90, 120 and 150 minutes) the start of the infusion of the test compound. The serum insulin and serum glucagon concentrations in the blood are determined by radioimmunoassay. A plot is made of the glucagon and insulin concentrations versus time. The plot obtained from the test compound is compared to plots obtained from somatostatin and saline (controls) in similar experiments.
(§4) Infusion of L-alanine (in the absence of somatostatin or active test compound) causes an abrupt increase in serum insulin and glucagon concentrations. The concentrations return to basal levels after the L-alanine infusion is terminated.

The subject of a further experiment is serum insulin. Nature of the experiment: Insulin Inhibition In Dogs (I.V. infusion, L-alanine stimulation, serum insulin by radioimmunoassay). In kind it is in vivo, dog. On the procedure:
as §1, §2, §3, §4

Experiment [1] deals with growth hormone (GH) secretion. The experiment can be described thus: Growth Hormone Inhibition In Rats (pentobarbital-stimulated GH secretion, serum GH by radioimmunoassay). In kind it is in vivo. To be noted: male rats; for % Inhibition of GH release (as compared to control): compared to saline control; for Serum Growth Hormone Conc. Mean ± SEM: sodium pentobarbital 4 mg/rat I.P., 20 minutes after dosing. How it is done: A. Growth Hormone Inhibition In Rats:
This test is a modification of the method of P. Brazeau et al. Endocrinology, 94, 184 (1974). Male rats (weighing 100-110 g.) are divided into three groups of eight rats each. Each rat is administered sodium pentobarbital at a dose of 4 mg/rat (I.P.) to stimulate growth hormone (GH) secretion. Simultaneously, one group of rats receives the test compound (S.C.); the second group receives somatostatin (S.C.); and the third group (control) receives saline (S.C.). Twenty-minutes later, the animals are decapitated and blood samples are collected. The serum concentration of growth hormone (GH) is determined by radioimmunoassay. The mean GH concentration (± standard error of the mean) is calculated for each group. The percent inhibition of GH release (as compared to saline controls) is then calculated for the test compound and for somatostatin. When tested as above-described, the peptide of Example 4 (D-Ala^2, Ala^5, D-Trp^8, Val^10, D-Phe^11 -Somatostatin) representative of the peptides of Formula III, gave the results set forth below in Table I: […]

[2] abbreviates: dog, in the presence of L-alanine.
Setting [3] is: dog, infusion alone (no L-alanine).
[4] abbreviates: normal fasted dog, I.V. infusion 0.237 μg/Kg./min, L-alanine infusion.

Positions of bridges follow the written chain, without caps; N, C: chain ends. Non-standard residues stand in square brackets, D forms with d. Residues, ends and D or L forms follow the SMILES beside them.

For the molecule `C[C@H](N)C(=O)NCC(=O)N[C@H]1CSSC[C@@H](C(=O)O)NC(=O)[C@H](CO)NC(=O)[C@H]([C@@H](C)O)NC(=O)[C@H](Cc2ccccc2)NC(=O)[C@H]([C@@H](C)O)NC(=O)[C@H](CCCCN)NC(=O)[C@H](Cc2c[nH]c3ccccc23)NC(=O)[C@H](Cc2ccccc2)NC(=O)[C@H](Cc2ccccc2)NC(=O)[C@H](CC(N)=O)NC(=O)[C@H](CCCCN)NC1=O` [Somatostatin], the “effect on increase in glucagon concentration induced by L-alanine” value in the experiment with serum glucagon (setting [2]) is given as “inhibits the increase”. The “effect on basal serum concentration of glucagon” value in the experiment with serum glucagon (setting [3]) is reported as “causes a decrease”. The “effect on increase in insulin concentration induced by L-alanine” value in the experiment with serum insulin (setting [2]) is given as “inhibits the increase”. Further, in the experiment on serum insulin (setting [3]), the “effect on basal serum concentration of insulin” value is reported as “causes a decrease”. The “% Inhibition of GH release (as compared to control)” value (from here on “% Inhibition of GH release”) in experiment [1] (dose 2 mg/kg S.C.) turned out to be 63%; in experiment [1] (dose 50 mg/kg S.C.), 93%. In experiment [1] (dose 2 mg/kg S.C.), this molecule had a Serum Growth Hormone Conc. Mean ± SEM of 105 ± 69 ng/mL.

With `CC(C)[C@@H]1NC(=O)[C@H](CCCCN)NC(=O)[C@@H](Cc2c[nH]c3ccccc23)NC(=O)[C@H](Cc2ccccc2)NC(=O)[C@H](Cc2ccccc2)NC(=O)[C@H](C)NC(=O)[C@H](CCCCN)NC(=O)[C@@H](NC(=O)[C@@H](C)NC(=O)[C@H](C)N)CSSC[C@@H](C(=O)O)NC(=O)[C@H](CO)NC(=O)[C@H]([C@@H](C)O)NC(=O)[C@@H](Cc2ccccc2)NC1=O` [Example 4, L-Alanyl-D-alanyl-L-cysteinyl-L-lysyl-L-alanyl-L-phenylalanyl-L-phenylalanyl-D-tryptophyl-L-lysyl-L-valyl-D-phenyl-alanyl-L-threonyl-L-seryl-L-cysteine cyclic (3->14) disulfide] (H-A[dA]CKAFF[dW]KV[dF]TSC-OH; disulfide 3-14), the “inhibition of glucagon concentration” value in the experiment with serum glucagon (setting [4]) is on record as “no significant inhibition”. Further, the “inhibition of insulin concentration” value with serum insulin (setting [4]) is given as “no significant inhibition”. Also, in experiment [1] (dose 2 mg/kg S.C.), the “% Inhibition of GH release” value was 7.8% and the Serum Growth Hormone Conc. Mean ± SEM was 61 ± 24 ng/mL. Moreover, in experiment [1] (dose 50 mg/kg S.C.), the “% Inhibition of GH release” value worked out at 66% and the Serum Growth Hormone Conc. Mean ± SEM turned out to be 97 ± 39 ng/mL.

The values are drawn from patent US4199500A, “Peptides related to somatostatin” (Eli Lilly and Company, priority 1978, dated 1980).
